This is an account of results in patent publication US20260258373A1, “PEPTIDE TAGS FOR PHAGE IMAGING” (priority 2022, published 2026).

The subject of one experiment is Matera (MAT). Put plainly: Monoclonal phage ELISA (cross-reactivity / validation) against MAT. The settings on record: peptide displayed on monoclonal phage; cross-reactivity assay. The experiment is classed as binding, Matera (family Myoviridae). (In general: In an ELISA, binding on a coated surface is turned into a signal by an enzyme label.)
For the next experiment, the target named is BSA (Bos taurus, UniProt P02769). Put plainly: Cross-reactivity ELISA against BSA (negative control). In kind it is binding, bovine. The settings on record: peptide displayed on monoclonal phage, cross-reactivity assay. On the procedure:
(§1) A Nunc Maxisorp flat-bottom 96-well plate was coated with 6×10^9 pfu GV per well (in TBS, pH 8) and incubated overnight at 4° C. Plates coated with 2% (w/v) bovine serum albumin (BSA) were used as negative controls. Next day, the plates were blocked with 2% (w/v) BSA at room temperature for 1 h, shaking at 800 rpm. The plates were then washed with 0.1% TBST (3×1 min) before adding 20 μL of amplified phage from each biopanning cycle to each well in 5% (w/v) BSA. After further incubation at room temperature for 1 h, shaking at 800 rpm, the plates were washed with 0.5% TBST (3×5 min) before adding 100 μL horseradish peroxidase (HRP)-conjugated anti-M13 monoclonal antibody (Abcam ab50370, diluted 1:500) and incubating at room temperature for 1 h, shaking at 800 rpm. After further washes in 0.5% TBST (3×5 min), Applicant added 100 μL of the tetramethylbenzidine (TMB) substrate (Thermo Fisher Scientific) to each well. The plates were incubated in the dark for 10 min and the absorbance was measured at 370 nm using an Infinite 200 Rx plate reader (Tecan Life Sciences) with 25 flashes in 96-well flat-bottom plate mode.
(§2) The protocol was similar to the polyclonal ELISA. Applicant coated wells with 10 μg cowpea mosaic virus (CPMV) or 1010 GV particles to assess their binding activity.

In experiment [1] the test system is cowpea mosaic virus (CPMV). Put plainly: Cross-reactivity ELISA against CPMV. In kind it is binding. As to conditions: peptide displayed on monoclonal phage; cross-reactivity assay. On the procedure:
as §1, §2

For experiment [2], the system named is Good Vibes phage (GV). Nature of the experiment: Monoclonal phage ELISA (cross-reactivity / validation) against GV. In kind it is binding. As to conditions: peptide displayed on monoclonal phage; cross-reactivity assay. On the procedure:
as §1
The protocol was similar to the polyclonal ELISA. […] Monoclonal phages differing in absorbance between GV and BSA by at least 0.3 units were isolated for DNA sanger sequencing (Eurofins Genomics). […]

The subject of experiment [3] is Good Vibes phage (GV). As to conditions: GV 1, 10 or 65 μg coated; 0.01 μg peptide; absorbance 450 nm; FIG. 5B.
Description: GV (1, 10 or 65 μg) was coated onto Nunc Maxisorp flat-bottom 96-well plates and incubated for 1 h at room temperature, shaking at 400 rpm. All incubation and washing steps were carried out at room temperature, shaking at 400 rpm, unless otherwise stated. The wells were blocked for 1 h with 300 μL 5% (w/v) BSA followed by washing once with 0.1% PBST for 5 min. Applicant then added 0.01 μg of GVBP-biotin peptide to the wells and incubated for 1 h. The wells were then washed three times with 0.1% PBST for 5 min each before adding streptavidin HRP conjugate (ab7403) diluted 1:10,000 and incubating for 30 min. The wells were washed another three times as above before adding 100 μL of TMB substrate and incubating for 5-10 min in the dark. The reaction was stopped by adding 50 μL 2M H2SO4 and the absorbance was measured at 450 nm using an Infinite 200 Rx plate reader as described above.
In the next experiment the test system is P. aeruginosa cells. Nature of the experiment: Flow cytometry of GVBP-Cy5, cells without phages. In kind it is binding, Pseudomonas aeruginosa. As to the method:
(§3) An overnight culture of P. aeruginosa was diluted 100-fold in fresh medium. The culture was incubated at 37° C. to reach OD600~0.2 before adding ~10^11 pfu of GV to the cells and incubating at 37° C. for 15 min. The cells were pelleted by centrifugation (6000 g, 15 min, at room temperature), washed once with 800 μL TM buffer (10 mM Tris base, 5 μM CaCl2), 10 mM MgSO4, pH 7.4) and resuspended in 200 μL of the same buffer. Applicant added GVBP-Cy5 (2×10^13 units) and incubated the mixture for 15 min at room temperature before centrifugal washing three times with 0.1% PBST (6000 g, 5 min, at room temperature). The pellet was resuspended in 200 μL TM buffer and the binding of GVBP-Cy5 to GV was analyzed using an Accuri C6 Plus flow cytometer (BD Biosciences). A total of 30,000 events were collected for each analysis.
For orientation: A flow cytometer gives signals particle by particle.

The test system of experiment [4] is GV bound to P. aeruginosa cells. Put plainly: Flow cytometry of GVBP-Cy5, cells with phages. In kind it is binding, Good Vibes phage on Pseudomonas aeruginosa. As to the method: as §3
Experiment [5] relates to Good Vibes phage (GV). Put plainly: GVBP-Cy5 ELISA. The settings on record: GV 0.1, 1, 10 or 63 μg coated; 0.05 μg peptide; fluorescence 647/665 nm; FIG. 5C. In kind it is binding. On the procedure:
Applicant then added 0.05 μg of GVBP-Cy5 peptide and incubated for 1 h. […] The fluorescence was measured using an Infinite 200 Rx plate reader with excitation and emission wavelengths of 647 and 665 nm, respectively, and a gain of 50.

Experiment [6] addresses Good Vibes phage (GV). Put plainly: competitive ELISA, GVER2738 against GVER2738_SYBR on GV-coated wells and on BSA-coated wells.

Where two headings read alike, the source gives them in different places. Cy5 = cyanine 5 dye

On to WDLPPIGRLSGN [H2N-WDLPPIGRLSGN—CO2H], for which the “ELISA signal against MAT” value with Matera (MAT) was “strong signal”. Besides, the “ELISA signal against BSA” value in the experiment with BSA is given as “not against CPMV or BSA”. In addition, the “ELISA signal against CPMV” value in experiment [1] is “not against CPMV or BSA”. In the experiment with Good Vibes phage (GV) [2], the “ELISA signal against GV” value was “strong signal”.
As for THLPPIMRNLQF, the “ELISA signal against MAT” value in the experiment on Matera (MAT) was “strong signal”. In the experiment with BSA, the “ELISA signal against BSA” value is “not against CPMV or BSA”. Also, in experiment [1], the “ELISA signal against CPMV” value was “not against CPMV or BSA”. Moreover, the “ELISA signal against GV” value in the experiment with Good Vibes phage (GV) [2] was “strong signal”.
For “H2N-WDLPPIGRLSGNGGGSK/biotin/—CO2H [GVBP-biotin]”, the “intensity of signal of bound peptide with increasing amounts of GV coating the plates” value with Good Vibes phage (GV) [3] is “became stronger”.
Consider “H2N-WDLPPIGRLSGNGGGSK/Cy5/—CO2H (H-WDLPPIGRLSGNGGGSK(Cy5)-OH; also: C-terminal Cy5, attachment not given here) [GVBP-Cy5]”, for which the “fluorescent signal (median fluorescence intensity, MFI)” value in the experiment with P. aeruginosa cells (in the absence of phage, FIG. 6B) is given as “weaker signal”; in experiment [4] (cells and phages plus GVBP-Cy5, FIG. 6B) it was “strongest fluorescent signal”. Moreover, the “APC+ shift” value in the experiment with P. aeruginosa cells (population containing P. aeruginosa cells without phages, peptide added, FIG. 6A panel iii) was 7.6%; in [4] (population containing both P. aeruginosa cells and GV phages, in the presence of GVBP-Cy5, FIG. 6A panel iv) it was 15.4%. Besides, in [4] (summary statement), the “binding to GV by flow cytometry” value is given as “significant binding”. In the experiment on Good Vibes phage (GV) [5], the “intensity of signal of bound peptide with increasing amounts of GV coating the plates” value is “became stronger”.
WDLPPIGRLSGN (modifications not checked) [monoclonal phage GVER2738 displaying the peptide …] yielded a fold of KD value, GV against BSA with Good Vibes phage (GV) [6] of 12 times.
